Experimental data reported in publication PMC5458078, “Global mapping of CARM1 substrates defines enzyme specificity and substrate recognition” (Nature Communications, 2017).

test system: MCF7 cells; assay: Quantitative nanoLC-MS/MS (TMT) of ADMA-containing peptides, CARM1 KO vs parental; format: cell-based, human; parameters: Fold change KO/WT: scale not given here; settings: MCF7, CARM1 KO (KO1-KO3) vs wild type (WT1-WT3)

| Substance | Fold change KO/WT |
| --- | --- |
| ATSPrPrAFDGAGSSLGrAPSPrPGPGPLrQQGPPTPFDFLGR | -2.635 |

same assay, conditions: MCF7, CARM1 KO vs WT, three biological replicates each

| Substance | Fold change KO/WT |
| --- | --- |
| VREELLrHQLLEK | -4.282 |
| APPGGLHAPrLSLEGAAR | -2.121 |
| FSPNPPQQGAVrPQTLNFSSR | -3.724 |
| SYGLGSEQrSQAPArYSLQSANASSLSSGQLK | -5.372 |
| KDLYANTVLSGGSTMYPGIADr | -0.3193 |
| NRPAIArGAAGGGGR | 0.06918 |
| QLPNAGPGAPPALGFSrFPAGAR | -2.458 |
| EELLrHQLLEK | -4.489 |
| VELPTCMYrLPNVHGR | -2.379 |
| AGGLLGTGSGLNLrMAGPQGLDLAPILR | -3.029 |
| LPGTPPLFSPPPrHHLDPHR | -1.221 |
| GArLPGPVSSAR | -2.095 |
| FCAFGGNPPVTGPrSALAPNLLTSGK | -4.63 |
| DFAFYNPrLQGK | -2.168 |
| LEPPLTPrCPLDFAPQTLSFPYAR | -5.801 |

same assay, conditions: MCF7, CARM1 knockout vs wild type, n = 3 each

| Substance | Fold change KO/WT |
| --- | --- |
| KLFIGGLSFETTDDSLr | -0.1026 |
| LRGPGGPrGGLGGGMR | -0.02725 |
| TVPMGGVrLVTPVTVSAVKPAVTTLVVK | -2.889 |
| QSHTLPFPPPPALPFYPASAYPrHFGPVPPSQGR | -1.33 |
| KPPNQSLPLQPFQLAFGHQVNrQVFrQGPPPPNPVAAFPPQK | -3.229 |
| TYQASSAAFrYTAGTPYK | -4.425 |
| QPVPFGLVrFGVAPDHPEVK | -1.677 |
| GQLFrLPSALNR | -4.127 |
| NDTKDDLGNLNVPDSSLPAENEATGPGFVPPPLAPIrGPLFPVDArGPFLR | -2.279 |
| LFIGGLSFETTDDSLr | -0.1032 |

same assay, conditions: MCF7 CARM1 knockout vs wild type, 3 biological replicates each; values are on log2 scale

| Substance | Fold change KO/WT |
| --- | --- |
| KSTLKPQPAPQAGPIPVAPIGTLKPQPQPVPASYTTASTSSrPTFNVQVK | -3.309 |
| EIrYSLLPFANESGTSAAAEVNR | -3.011 |
| GPPPGSANPPrLVSSYrLK | -2.444 |
| VSTSGPrAFSSrSYTSGPGSrISSSSFSR | -2.338 |
| LLGQRPGPYDRPIGGrGGYYGAGrGSMYDR | 0.5689 |
| QHLLLrGPPPGSANPPrLVSSYrLK | -1.782 |
| STLKPQPAPQAGPIPVAPIGTLKPQPQPVPASYTTASTSSrPTFNVQVK | -3.941 |
| AFSSrSYTSGPGSrISSSSFSR | -1.022 |

test system: MCF7 CARM1 KO cells; assay: Quantitative MS of ADMA-containing peptides in MCF7 CARM1 KO cells expressing CARM1 28-608 or CARM1 140-608, and in CARM1 KO; format: cell-based, human; settings: CARM1 140-608 versus WT, mean of three replicates (log2)

| Substance | CARM1 140-608/WT |
| --- | --- |
| ATSPrPrAFDGAGSSLGrAPSPrPGPGPLrQQGPPTPFDFLGR | -2.092 |

same assay, conditions: CARM1 140-608 vs WT, mean of 3 replicates, log2

| Substance | CARM1 140-608/WT |
| --- | --- |
| VREELLrHQLLEK | -2.55 |
| APPGGLHAPrLSLEGAAR | -1.8169 |
| SYGLGSEQrSQAPArYSLQSANASSLSSGQLK | -3.897 |
| KDLYANTVLSGGSTMYPGIADr | -0.3764 |
| NRPAIArGAAGGGGR | -0.06003 |
| QLPNAGPGAPPALGFSrFPAGAR | -1.8557 |
| EELLrHQLLEK | -4.245 |
| VELPTCMYrLPNVHGR | -1.403 |
| LPGTPPLFSPPPrHHLDPHR | -1.232 |
| GArLPGPVSSAR | -1.788 |
| FCAFGGNPPVTGPrSALAPNLLTSGK | -3.4143 |
| DFAFYNPrLQGK | -2.071 |
| LEPPLTPrCPLDFAPQTLSFPYAR | -2.973 |

same assay, conditions: KO versus WT, mean of three replicates (log2)

| Substance | KO/WT |
| --- | --- |
| ATSPrPrAFDGAGSSLGrAPSPrPGPGPLrQQGPPTPFDFLGR | -2.635 |

same assay, conditions: KO vs WT, mean of 3 replicates, log2

| Substance | KO/WT |
| --- | --- |
| VREELLrHQLLEK | -4.282 |
| APPGGLHAPrLSLEGAAR | -2.946 |
| SYGLGSEQrSQAPArYSLQSANASSLSSGQLK | -5.372 |
| KDLYANTVLSGGSTMYPGIADr | -0.3193 |
| NRPAIArGAAGGGGR | 0.534 |
| QLPNAGPGAPPALGFSrFPAGAR | -2.458 |
| EELLrHQLLEK | -5.464 |
| VELPTCMYrLPNVHGR | -3.7411 |
| LPGTPPLFSPPPrHHLDPHR | -1.196 |
| GArLPGPVSSAR | -2.095 |
| FCAFGGNPPVTGPrSALAPNLLTSGK | -5.047 |
| DFAFYNPrLQGK | -2.382 |
| LEPPLTPrCPLDFAPQTLSFPYAR | -5.801 |

same assay, conditions: difference of log2 means, CARM1 140-608 vs WT

| Substance | CARM1 140-608/WT |
| --- | --- |
| KSTLKPQPAPQAGPIPVAPIGTLKPQPQPVPASYTTASTSSrPTFNVQVK | -2.692 |
| EIrYSLLPFANESGTSAAAEVNR | -1.601 |
| GPPPGSANPPrLVSSYrLK | -0.6365 |
| VSTSGPrAFSSrSYTSGPGSrISSSSFSR | -2.338 |
| QHLLLrGPPPGSANPPrLVSSYrLK | -1.091 |
| STLKPQPAPQAGPIPVAPIGTLKPQPQPVPASYTTASTSSrPTFNVQVK | -2.676 |
| AFSSrSYTSGPGSrISSSSFSR | -1.259 |

same assay, conditions: difference of log2 means, KO vs WT

| Substance | KO/WT |
| --- | --- |
| KSTLKPQPAPQAGPIPVAPIGTLKPQPQPVPASYTTASTSSrPTFNVQVK | -3.309 |
| EIrYSLLPFANESGTSAAAEVNR | -3.011 |
| GPPPGSANPPrLVSSYrLK | -1.758 |
| VSTSGPrAFSSrSYTSGPGSrISSSSFSR | -2.338 |
| QHLLLrGPPPGSANPPrLVSSYrLK | -1.563 |
| STLKPQPAPQAGPIPVAPIGTLKPQPQPVPASYTTASTSSrPTFNVQVK | -3.941 |
| AFSSrSYTSGPGSrISSSSFSR | -1.022 |

same assay, conditions: mean, CARM1 140-608 versus WT (log2 scale)

| Substance | CARM1 140-608/WT |
| --- | --- |
| KLFIGGLSFETTDDSLr | -0.2797 |
| LRGPGGPrGGLGGGMR | 0.5472 |
| TVPMGGVrLVTPVTVSAVKPAVTTLVVK | -0.6483 |
| LLGQRPGPYDRPIGGrGGYYGAGrGSMYDR | -0.09536 |
| QPVPFGLVrFGVAPDHPEVK | -1.417 |
| LFIGGLSFETTDDSLr | -0.1871 |

same assay, conditions: mean, CARM1 KO versus WT (log2 scale)

| Substance | KO/WT |
| --- | --- |
| KLFIGGLSFETTDDSLr | 0.2164 |
| LRGPGGPrGGLGGGMR | 1.035 |
| TVPMGGVrLVTPVTVSAVKPAVTTLVVK | -2.889 |
| LLGQRPGPYDRPIGGrGGYYGAGrGSMYDR | 1.04 |
| QPVPFGLVrFGVAPDHPEVK | -1.677 |
| LFIGGLSFETTDDSLr | 0.1666 |

same assay, conditions: ratio on log2 scale, mean of 3 replicates

| Substance | CARM1 140-608/WT | KO/WT |
| --- | --- | --- |
| FSPNPPQQGAVrPQTLNFSSR | 1.2079 | -1.542 |
| AGGLLGTGSGLNLrMAGPQGLDLAPILR | -0.05646 | -2.802 |
| QSHTLPFPPPPALPFYPASAYPrHFGPVPPSQGR | -0.8989 | -1.33 |
| KPPNQSLPLQPFQLAFGHQVNrQVFrQGPPPPNPVAAFPPQK | -2.162 | -3.229 |
| TYQASSAAFrYTAGTPYK | -4.171 | -4.425 |
| GQLFrLPSALNR | -1.812 | -4.117 |
| NDTKDDLGNLNVPDSSLPAENEATGPGFVPPPLAPIrGPLFPVDArGPFLR | 0.1654 | -2.602 |
